From US20050004211A1, “Pharmaceutical compositions comprising aryl-substituted acyclic enediyne compounds” (KAOHSIUNG MEDICAL UNIVERSITY, priority 2003, published 2005)
In brackets after ≈: the same amount, converted by molar mass.

Columns and labels:
Hepa: human hepatoma = assay: In vitro anticancer assay (cytotoxicity), human solid tumor cells; details: for IC50: Homo sapiens, HepA, read-out: IC50 Values of Cytotoxicities, Hepa
[1] = system: KB: human oral epidermoid carcinoma; assay: as above; details: for IC50: Homo sapiens, read-out: IC50 Values of Cytotoxicities, KB
[2] = system: Hela: human cervix epitheloid carcinoma; assay: as above; details: for IC50: Homo sapiens, HeLa, read-out: IC50 Values of Cytotoxicities, Hela
[3] = system: DLD (DLD-1): human colon adenocarcinoma; assay: as above; details: for IC50: Homo sapiens, DLD-1, read-out: IC50 Values of Cytotoxicities, DLD
[4] = system: NCI (NCI-H661): human lung large cell carcinoma; assay: as above; details: for IC50: Homo sapiens, NCI-H661, read-out: IC50 Values of Cytotoxicities, NCI; for IC50 Values of Cytotoxicities, NCI: NCI (NCI-H661)
CNS cancer cell SF-268 = assay: Preliminary cytotoxicity test; type: cell-based, human
Breast cancer cell MCF-7 = assay: Preliminary cytotoxicity test; type: cell-based, human
[5] = system: Non-small cell Lung cancer cell NCI-H460; assay: Preliminary cytotoxicity test; type: cell-based, human
topoisomerase I = target: T1, topoisomerase I (Homo sapiens, UniProt P11387); assay: Topoisomerase I course assay, cleavage of supercoiled pGEM9zf(−) DNA, gel electrophoresis; type: biochemical; details: for topo I inhibitor, overall finding: no concentration stated
T1 sequence (P11387 1-765): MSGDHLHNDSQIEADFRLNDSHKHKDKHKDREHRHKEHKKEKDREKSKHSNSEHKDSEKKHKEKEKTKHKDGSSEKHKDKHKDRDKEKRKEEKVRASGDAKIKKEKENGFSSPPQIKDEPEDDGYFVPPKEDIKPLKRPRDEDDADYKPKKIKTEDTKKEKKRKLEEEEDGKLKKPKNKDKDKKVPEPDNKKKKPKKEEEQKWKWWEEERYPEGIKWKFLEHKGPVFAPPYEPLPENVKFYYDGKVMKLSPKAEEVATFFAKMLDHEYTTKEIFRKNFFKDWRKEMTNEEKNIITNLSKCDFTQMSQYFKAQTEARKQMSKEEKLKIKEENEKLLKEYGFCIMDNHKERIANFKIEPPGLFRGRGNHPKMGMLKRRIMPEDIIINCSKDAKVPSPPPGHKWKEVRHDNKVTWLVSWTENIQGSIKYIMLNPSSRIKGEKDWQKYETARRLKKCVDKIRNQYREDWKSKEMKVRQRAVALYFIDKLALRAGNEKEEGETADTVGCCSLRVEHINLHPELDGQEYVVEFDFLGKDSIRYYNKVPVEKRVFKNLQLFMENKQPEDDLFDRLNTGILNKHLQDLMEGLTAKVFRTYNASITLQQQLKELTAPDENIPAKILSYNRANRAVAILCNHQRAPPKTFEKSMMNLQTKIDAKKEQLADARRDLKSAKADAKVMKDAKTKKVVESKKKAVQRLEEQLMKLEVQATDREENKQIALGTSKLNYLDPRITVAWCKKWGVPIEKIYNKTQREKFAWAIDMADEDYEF

CCCCCCC#C/C=C\C#Cc1ccc([N+](=O)[O-])cc1 [Compound 21, 4-nitro-1-(3-(Z)-dodecen-1,5-diynyl)benzene]
IC50 (Hepa: human hepatoma): > 20 µg/mL | IC50 [1]: 13 µg/mL (≈ 46.2 µM) | IC50 [2]: > 20 µg/mL | IC50 [3]: 1.66 µg/mL (≈ 5.9 µM) | IC50 [4]: > 20 µg/mL

CCCCCCC#C/C=C\C#Cc1cnccn1 [Compound 17, 2-(3-(Z)-Dodecen-1,5-diynyl)pyrazine]
IC50 (Hepa: human hepatoma): 12.3 µg/mL (≈ 51.8 µM) | IC50 [1]: 5.93 µg/mL (≈ 24.9 µM) | IC50 [2]: 5.3 µg/mL (≈ 22.2 µM) | IC50 [3]: 3.89 µg/mL (≈ 16.3 µM) | IC50 [4]: 9.43 µg/mL (≈ 39.6 µM)

CCCCCCC#C/C=C\C#Cc1ccccc1C(=O)O [Compound 22, 2-(3-(Z)-Dodecen-1,5-diynyl)benzoate]
IC50 Values of Cytotoxicities, Hepa (Hepa: human hepatoma): — (“—” means IC50 >20 μg/ml) | IC50 Values of Cytotoxicities, KB [1]: — (“—” means IC50 >20 μg/ml) | IC50 Values of Cytotoxicities, Hela [2]: — (“—” means IC50 >20 μg/ml) | IC50 Values of Cytotoxicities, DLD [3]: 7.27 µg/mL | IC50 Values of Cytotoxicities, NCI [4]: — (“—” means IC50 >20 μg/ml)

2-(6-(2-thioanisyl)-3-hexen-1,5-diynyl)benzonitrile [Compound 31]
Growth percentage, CNS cancer cell SF-268 (CNS cancer cell SF-268): 164% | Growth percentage, Breast cancer cell MCF-7 (Breast cancer cell MCF-7): 62% | Growth percentage, Non-small cell Lung cancer cell NCI-H460 [5]: 100%

CCCCCCC#C/C=C\C#Cc1ccccn1 [Compound 15, 2-(3-(Z)-Dodecen-1,5-diynyl)pyridine]
IC50 (Hepa: human hepatoma): > 20 µg/mL | IC50 [1]: > 20 µg/mL | IC50 [2]: > 20 µg/mL | IC50 [3]: 5.15 µg/mL (≈ 21.7 µM) | IC50 [4]: > 20 µg/mL

CCCCC#C/C=C\C#Cc1ccccc1 [Compound 6, (3Z)-Decen-1,5-diynylbenzene]
IC50 (Hepa: human hepatoma): > 20 µg/mL | IC50 [1]: 14.4 µg/mL (≈ 69.3 µM) | IC50 [2]: > 20 µg/mL | IC50 [3]: > 20 µg/mL | IC50 [4]: 7.35 µg/mL (≈ 35.3 µM) | topo I inhibitor, overall finding (topoisomerase I): not Topo I inhibitors

CCCCCC#Cc1ccccc1C#Cc1ccccc1C#N [Compound 10, 2-(2-(2-Heptynylphenyl)ethynyl)benzonitrile]
IC50 Values of Cytotoxicities, Hepa (Hepa: human hepatoma): 5.13 µg/mL | IC50 Values of Cytotoxicities, KB [1]: — (“—” means IC50 >20 μg/ml) | IC50 Values of Cytotoxicities, Hela [2]: — (“—” means IC50 >20 μg/ml) | IC50 Values of Cytotoxicities, DLD [3]: 16.25 µg/mL | IC50 Values of Cytotoxicities, NCI [4]: 9.22 µg/mL | inhibition of topo I (topoisomerase I; 0.87 μM compound): no inhibition of topo I | inhibition of topo I (topoisomerase I; 8.7 μM compound): displayed inhibitory activity against topo I | inhibition of topo I (topoisomerase I; 87 μM compound): displayed inhibitory activity against topo I

N#Cc1ccccc1C#CC=CC#Cc1cccs1 [Compound 29, 2-(6-(2-thienyl)-3-hexen-1,5-diynyl)benzonitrile]
Growth percentage, CNS cancer cell SF-268 (CNS cancer cell SF-268): 96% | Growth percentage, Breast cancer cell MCF-7 (Breast cancer cell MCF-7): 49% | Growth percentage, Non-small cell Lung cancer cell NCI-H460 [5]: 34%

Cc1ccc(C#CC=CC#Cc2ccccc2C#N)cc1 [Compound 28, 2-(6-(4-tolyl)-3-hexen-1,5-diynyl)benzonitrile]
Growth percentage, CNS cancer cell SF-268 (CNS cancer cell SF-268): 105% | Growth percentage, Breast cancer cell MCF-7 (Breast cancer cell MCF-7): 80% | Growth percentage, Non-small cell Lung cancer cell NCI-H460 [5]: 96%

CC[C@@]1(O)C(=O)OCc2c1cc1n(c2=O)Cc2cc3ccccc3nc2-1 [camptothecin, reference compound]
inhibition of topo I (topoisomerase I; 26.1 μM): less topo I inhibitory activity | inhibition of topo I (topoisomerase I; 43.5 μM): observable inhibition of topo I

CCCCCCC#C/C=C\C#Cc1ccc(C#N)cc1 [Compound 14, 4-(3-(Z)-Dodecen-1,5-diynyl)benzonitrile]
IC50 (Hepa: human hepatoma): > 20 µg/mL | IC50 [1]: > 20 µg/mL | IC50 [2]: > 20 µg/mL | IC50 [3]: 11.9 µg/mL (≈ 45.6 µM) | IC50 [4]: > 20 µg/mL

CCCCC#Cc1ccccc1C#Cc1ccccc1C#N [Compound 9, 2-(2-(2-Hexynylphenyl)ethynyl)benzonitrile]
IC50 Values of Cytotoxicities, Hepa (Hepa: human hepatoma): — (“—” means IC50 >20 μg/ml) | IC50 Values of Cytotoxicities, KB [1]: — (“—” means IC50 >20 μg/ml) | IC50 Values of Cytotoxicities, Hela [2]: — (“—” means IC50 >20 μg/ml) | IC50 Values of Cytotoxicities, DLD [3]: 8.98 µg/mL | IC50 Values of Cytotoxicities, NCI [4]: — (“—” means IC50 >20 μg/ml) | inhibition of topo I (topoisomerase I; 0.87 μM compound): no supercoiled DNA observed | inhibition of topo I (topoisomerase I; 8.7 μM compound): no supercoiled DNA observed | inhibition of topo I (topoisomerase I; 87 μM compound): showed restraint of topo I

N#Cc1ccccc1C#Cc1ccccc1C#CCOC1CCCCO1 (stereo not drawn) [Compound 7, 2-(2-(3-Tetrahydro-pyranyl-5-oxy-1-propynylphenyl)ethynyl)benzonitrile]
IC50 Values of Cytotoxicities, Hepa (Hepa: human hepatoma): — (“—” means IC50 >20 μg/ml) | IC50 Values of Cytotoxicities, KB [1]: — (“—” means IC50 >20 μg/ml) | IC50 Values of Cytotoxicities, Hela [2]: — (“—” means IC50 >20 μg/ml) | IC50 Values of Cytotoxicities, DLD [3]: — (“—” means IC50 >20 μg/ml) | IC50 Values of Cytotoxicities, NCI [4]: — (“—” means IC50 >20 μg/ml)

CCCCCCC#C/C=C\C#Cc1cccs1 [Compound 16, 2-(3-(Z)-Dodecen-1,5-diynyl)thiophene]
IC50 (Hepa: human hepatoma): > 20 µg/mL | IC50 [1]: > 20 µg/mL | IC50 [2]: > 20 µg/mL | IC50 [3]: 6.75 µg/mL (≈ 27.8 µM) | IC50 [4]: > 20 µg/mL

2-(6-(2-xylenyl)-3-hexen-1,5-diyne)benzonitrile [Compound 24]
Growth percentage, CNS cancer cell SF-268 (CNS cancer cell SF-268): 111% | Growth percentage, Breast cancer cell MCF-7 (Breast cancer cell MCF-7): 101% | Growth percentage, Non-small cell Lung cancer cell NCI-H460 [5]: 129%

CCCCCCC#C/C=C\C#Cc1ccc(-c2ccc(C#C/C=C\C#CCCCCCC)cc2)cc1 [Compound 12, 4,4′-Bis-(3-(Z)-Dodecen-1,5-diynyl)biphenyl]
IC50 (Hepa: human hepatoma): > 20 µg/mL | IC50 [1]: 5.57 µg/mL (≈ 11.8 µM) | IC50 [2]: > 20 µg/mL | IC50 [3]: > 20 µg/mL | IC50 [4]: > 20 µg/mL | inhibition of topo I (topoisomerase I; 8.7 μM compound): No supercoiled DNA was observed | inhibition of topo I (topoisomerase I; 87 μM compound): No supercoiled DNA was observed | topo I inhibitor, overall finding (topoisomerase I): not topo I inhibitors

CCCCCCC#C/C=C\C#Cc1ccccc1C(F)(F)F [Compound 20, 2-(3-(Z)-Dodecen-1,5-diynyl)trifluoromethylbenzene]
IC50 Values of Cytotoxicities, Hepa (Hepa: human hepatoma): 12.24 µg/mL | IC50 Values of Cytotoxicities, KB [1]: 19.65 µg/mL | IC50 Values of Cytotoxicities, Hela [2]: 2.15 µg/mL | IC50 Values of Cytotoxicities, DLD [3]: 8.91 µg/mL | IC50 Values of Cytotoxicities, NCI [4]: 5.02 µg/mL

CCCCCCC#C/C=C\C#Cc1ccc(C(F)(F)F)cc1 [Compound 18, 4-(3-(Z)-Dodecen-1,5-diynyl)trifluoromethylbenzene]
IC50 Values of Cytotoxicities, Hepa (Hepa: human hepatoma): 17.08 µg/mL | IC50 Values of Cytotoxicities, KB [1]: 4.32 µg/mL | IC50 Values of Cytotoxicities, Hela [2]: 5.86 µg/mL | IC50 Values of Cytotoxicities, DLD [3]: 5.71 µg/mL | IC50 Values of Cytotoxicities, NCI [4]: 11.15 µg/mL | inhibition of topo I (topoisomerase I; 87 μM compound): displayed inhibitory activities of topo I

CCCCCCC#C/C=C\C#Cc1cccc(C(F)(F)F)c1 [Compound 19, 3-(3-(Z)-Dodecen-1,5-diynyl)trifluoromethylbenzene]
IC50 Values of Cytotoxicities, Hepa (Hepa: human hepatoma): 14.39 µg/mL | IC50 Values of Cytotoxicities, KB [1]: 6.74 µg/mL | IC50 Values of Cytotoxicities, Hela [2]: — (“—” means IC50 >20 μg/ml) | IC50 Values of Cytotoxicities, DLD [3]: 7.05 µg/mL | IC50 Values of Cytotoxicities, NCI [4]: 7.73 µg/mL

N#Cc1ccccc1C#Cc1ccccc1C#CCCCOC1CCCCO1 (stereo not drawn) [Compound 8]
IC50 Values of Cytotoxicities, Hepa (Hepa: human hepatoma): — (“—” means IC50 >20 μg/ml) | IC50 Values of Cytotoxicities, KB [1]: — (“—” means IC50 >20 μg/ml) | IC50 Values of Cytotoxicities, Hela [2]: — (“—” means IC50 >20 μg/ml) | IC50 Values of Cytotoxicities, DLD [3]: 11.65 µg/mL | IC50 Values of Cytotoxicities, NCI [4]: — (“—” means IC50 >20 μg/ml)

CCCCCCC#C/C=C\C#Cc1ccc(C#C/C=C\C#CCCCCCC)cc1 [Compound 11, 1,4-Bis-(3-(Z)-Dodecen-1,5-diynyl)benzene]
IC50 (Hepa: human hepatoma): > 20 µg/mL | IC50 [1]: > 20 µg/mL | IC50 [2]: > 20 µg/mL | IC50 [3]: > 20 µg/mL | IC50 [4]: > 20 µg/mL | inhibition of topo I (topoisomerase I; 8.7 μM compound): No supercoiled DNA was observed | inhibition of topo I (topoisomerase I; 87 μM compound): No supercoiled DNA was observed | topo I inhibitor, overall finding (topoisomerase I): not topo I inhibitors
